“Also recorded” adds a separate entry of the source.
Key:
Type in all cases: cell-based, human
[1] = test system: melanoma cell lines (low- and high-pSTAT1); test: Apoptosis assessed by TUNEL staining 72 h after treatment; conditions: PD325901 50 nM
Description: (§1) Control samples were collected untreated at time of treatment.
Apoptosis was assessed by TUNEL staining Cells were plated in 6-well plates at 200K cells/well. […] TUNEL was performed using Invitrogen BrdU TUNEL kit.

[2] = test system: pSTAT1 (interferon-STAT1 pathway); test: Western blots of pSTAT1 levels; conditions: low- and high-pSTAT1 cell lines
Description: as §1
(§2) Samples for protein analysis were lysed using RIPA buffer. Protein concentration was assessed using BCA staining Samples were then normalized to a fixed concentration and mixed with a 5× glycerol/SDS/DTT loading buffer. Lysates were run on gradient (4-12%) Bis-Tris gels. After incubation with horseradish peroxidase-conjugated secondary antibodies, proteins were detected using chemiluminescence.

[3] = test system: intrinsic apoptotic pathway (cytochrome C release); test: Cytochrome C release from the mitochondria
Description: Cytochrome C release was assessed on fresh unfrozen pellets using Sucrose/Mannitol buffer (Majewski et al., 2004). Full details in the supplementary material.
Protocol for Cytochrome C release is taken, as is, from Majewski et al 2004. Lysis buffer: 20 mM Hepes-KOH, [pH 7.5], 210 mM sucrose, and 70 mM mannitol; 1.5 mM MgCl2, 10 mM […], protease inhibitor, and 1 mg digitonin/1 mL lysis buffer.
Cells are trypsinized, collected and spun down in 4C. They are then washed with PBS and spun down again. It is critical that cell pellets will be lysed immediately without freezing. Cells are gently suspended, without vortexing, in lysis buffer. Roughly double the cell pellet volume is used. They are incubated in 25C for 3-10 min, depending all cell line. Spun down at 4C for 20 minutes at highest speed. Supernatant contains cytoplasmic fraction.

[4] = test system: caspase pathway (caspases 9, 7 and 3); test: Cleaved caspases by Western blot; conditions: MEK inhibition
Description: as §1, §2

[5] = test system: Ma1Me3M, a BRAF-V600E cell line; test: Comparison of BRAF and MEK inhibition, transcriptional response (Illumina HumanHT-12 microarrays)
Description: We assessed expression fold change at 1 hour, 2, 4, and 8 hours following treatment using Illumina HumanHT-12 microarrays.
Illumina's probe pvalues were used to filter out probes. Probes with p-value>0.05 in more than half of the samples were removed. Then microarrays were normalized according to their 75% percentile values. The 2 control array were averaged, and treated samples were compared to the averaged control to assess fold change.

[6] = test system: high pSTAT1 cell line; test: Cytotoxicity of IFN by SubG1 percentage; conditions: 48 hours after treatment
Description: The cytotoxicity of IFN was assessed in high pSTAT1 cell line, 48 hours after treatment using SubG1 percentage. […] Cells plated in 6 well plates, 200K cells/well, in 2 mL of growth media. […] 50K cells per well were plated in 6-well plates with 2 mL of media and treated 24 hours later. Cells were counted every 24 hours up to 72 hours. C. […] Cells were plated in 6 well plates, 200K cells/well with 2 mL media.

O=C(NOC[C@H](O)CO)c1ccc(F)c(F)c1Nc1ccc(I)cc1F [PD325901]
cytotoxic effect of MEK inhibition alone (TUNEL) ([1]; high-pSTAT1 cell lines): only mild response
cytotoxic effect of MEK inhibition alone (TUNEL) ([1]; high-pSTAT1 cell lines, listed as MEK inhibition): mostly resistant
cytotoxic effect of MEK inhibition alone (TUNEL) ([1]; low-pSTAT1 cell lines): sensitive
pSTAT1 levels after treatment [2]: increase in pSTAT1 levels
time of cytochrome C release after treatment ([3]; MEKi): approx. 36 hours
cytochrome C release ([3]; MEKi alone, all cell lines): activates the intrinsic apoptotic pathway by cytochrome C release
cleavage/activation of caspase 7 and 9 ([4]; high-pSTAT1 cell lines): not cleaved
cleavage/activation of caspase 7 and 9 ([4]; low pSTAT1 cell lines): cleaved and activated

CCCS(=O)(=O)Nc1ccc(F)c(C(=O)c2c[nH]c3ncc(Cl)cc23)c1F [PLX4720]
transcriptional response compared with the MEK inhibitor PD325901 ([5]; 2 uM PLX4720 vs 50 nM PD325901, BRAF-V600E cell line): almost identical transcriptional response
difference in gene expression fold change between MEKi and BRAFi treatments ([5]; Ma1Me3M, all time points (1, 2, 4, 8 hours)): ≤ 0.5 fold (on a log 2 scale)

IFNα
cytotoxic / apoptotic effect of IFN (SubG1 percentage) [6]: weaker cytotoxic effect than IFNβ; also recorded: dose-dependent effects

Source: patent US20150086509A1, “COMPOSITIONS AND METHODS FOR TREATING CANCER USING INTERFERON AND MAPK PATHWAY INHIBITOR” (The Trustees of Columbia University in the City of New York, priority 2013, published 2015)
